Values after ≈ are worked out from the molar mass of the structure shown.
Experiments:
[1] = system: Mycobacterium tuberculosis; assay: Antibacterial activity against Mycobacterium tuberculosis H37Rv after 7 days by microplate alamar blue assay; assay type: functional; conditions: 168 h
[2] = Inhibition of Mycobacterium tuberculosis chorismate mutase assessed as reduction in conversion of chorismate to prephenate using chorismic acid as substrate after 5 mins by spectrophotometric method
[3] = Inhibition of Mycobacterium tuberculosis chorismate mutase assessed as reduction in conversion of chorismate to prephenate using chorismate as substrate after 1 to 5 mins
[4] = Inhibition of Escherichia coli chorismate mutase
Escherichia coli [5] = assay: Inhibition of Escherichia coli chorismate mutase assessed as ratio of IC50 to chorismate Km
Escherichia coli [6] = assay: Inhibition of Escherichia coli chorismate mutase assessed as ratio of I50 to chorismate Km
[7] = Inhibition of Mycobacterium tuberculosis H37Rv chorismate mutase assessed as reduction in conversion of chorismate to prephenate using chorismic acid as substrate by spectrophotometric method
[8] = system: Mycobacterium tuberculosis; assay: Inhibition of Mycobacterium tuberculosis chorismate mutase expressed in Escherichia coli BL21 (DE3) assessed as reduction in conversion of chorismate to prephenate at 30 uM using chorismic acid as substrate after 5 mins by spectrophotometric method relative to control
[9] = Competitive inhibition of Bacillus subtilis chorismate mutase using varying levels of chorismic acid as substrate
[10] = Competitive inhibition of Escherichia coli chorismate mutase using varying levels of chorismic acid as substrate by Lineweaver-burk plot method

SMILES: O=C1Nc2ccccc2C1=O [ISATIN]
- MIC [1]: 340 µM (≈ 50 µg/mL)

SMILES: O=C1Nc2ccccc2/C1=C/c1ccc([N+](=O)[O-])cc1
- MIC [1]: 23.5 µM (≈ 6.26 µg/mL)
- IC50 [2]: 1.01 µM

SMILES: Cc1ccc(C(C)C)cc1O [CARVACROL]
- IC50 [3]: 1.06 µM

SMILES: O=C(O)C1CC2CC(C(=O)O)(C=CC2O)C1 (stereo in doubt; 16) [listing 1 of 2 here]
- IC50 [4]: 430 µM

SMILES: O=C(O)C1CC2(C(=O)O)C=CC(O)C(C2)N1 (stereo in doubt; 22)
- Ratio (Escherichia coli [5]): 1.2

SMILES: O=C(O)C1CC2CC(C(=O)O)(C=CC2O)C1 (stereo in doubt; 17) [listing 1 of 2 here]
- Ratio (Escherichia coli [6]): 5.6

SMILES: O=C1OC2CC3(C(=O)O)CC1NC(C3)C2O (stereo not given)
- Ratio (Escherichia coli [5]): > 50

SMILES: O=C(O)C1CC2(C(=O)O)C=CC(O)C(C2)O1 (stereo not given)
- Ratio (Escherichia coli [5]): 0.007

SMILES: CCOC(=O)C1=C(C)NC(=O)N[C@H]1c1ccccc1C#CCCO
- IC50 [7]: 14.8 µM

SMILES: CC(=O)c1c(C(C)(C)C)[nH]c2c(S(C)(=O)=O)cc(Cl)cc12
- inhibition [8]: 45%

SMILES: O=C(O)C1CC2CC(C(=O)O)(C=CC2O)C1 (stereo in doubt; 17) [listing 2 of 2 here]
- IC50 [4]: 500 µM

SMILES: O=C(O)C1CC2([N+](=O)[O-])C=CC(O)C(C2)O1 (stereo not given)
- Ki [9]: 0.3 µM

SMILES: O=C(O)C1CC2(C(=O)O)C=CC3C(C2)N13 (stereo not given)
- Ratio (Escherichia coli [5]): > 20

SMILES: O=C(O)C1CC2(C(=O)O)C=CC(O)C(C2)N1 (stereo in doubt; 23)
- Ratio (Escherichia coli [5]): 18

SMILES: O=C(O)C12CC3CC(C(=O)O)(C1)C2CC3O (stereo not given)
- IC50 [4]: 500 µM
- Ratio (Escherichia coli [6]): 5.6

SMILES: O=C(O)c1cccc([N+](=O)[O-])c1-c1c(C(=O)O)cccc1[N+](=O)[O-]
- Ki [10]: 13 µM

SMILES: O=C(O)C1CC2CC(C(=O)O)(C=CC2O)C1 (stereo in doubt; 16) [listing 2 of 2 here]
- Ratio (Escherichia coli [6]): 4.8

SMILES: O=C1OC2CC3(C(=O)O)CC1N1C(C3)C21 (stereo not given)
- Ratio (Escherichia coli [5]): 42

From ChEMBL document CHEMBL3994661, “Mycobacterium tuberculosis chorismate mutase: A potential target for TB” (Bioorg Med Chem, 2017)
